Measurements taken from patent publication US9428504B2, “7-hydroxy-spiropipiperidine indolinyl antagonists of P2Y1 receptor” (BRISTOL-MYERS SQUIBB COMPANY, priority 2012, dated 2016).
Structures can show the parent of a compound that is named as a salt. Where two headings read alike, the source gives them in different places.

How the values were obtained:
[1] = target: cloned human P2Y1 receptors (Homo sapiens (Human), UniProt P47900); assay: Binding Assay B: Scintillation Proximity Assay (SPA) for P2Y1 binding
cloned human P2Y1 receptors, sequence (P47900 whole entry): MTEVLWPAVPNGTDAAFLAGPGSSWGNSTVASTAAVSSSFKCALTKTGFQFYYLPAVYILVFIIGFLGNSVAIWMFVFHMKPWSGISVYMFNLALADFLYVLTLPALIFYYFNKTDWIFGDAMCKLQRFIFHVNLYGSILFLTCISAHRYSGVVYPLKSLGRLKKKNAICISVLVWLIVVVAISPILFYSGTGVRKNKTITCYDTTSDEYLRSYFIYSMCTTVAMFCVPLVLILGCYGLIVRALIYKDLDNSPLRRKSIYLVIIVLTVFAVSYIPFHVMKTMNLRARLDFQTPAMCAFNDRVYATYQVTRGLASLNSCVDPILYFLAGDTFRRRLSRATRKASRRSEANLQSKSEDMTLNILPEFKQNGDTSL
Experimental: A SPA membrane binding assay was used to identify inhibitors of [^33P] […] Binding reactions were performed in 384-well OptiPlates (PerkinElmer Life Sciences, Cat #6007299) in a volume of 50 μL containing ˜15 fmol of P2Y1 receptor (1.7 μg of total protein), 0.3 nM [^33P] […] Reactions were allowed to proceed to completion at room temperature for 1 hour followed by centrifugation of the plate for 5 min. About 40 μL of the aqueous solution was aspirated. Plates were sealed and the [^33P]

[2] = test system: human platelet rich plasma (PRP); assay: ADP induced platelet aggregation assay; conditions: Homo sapiens, Platelet, read-out: PA IC50 (μM) @ 10 μM ADP, platelet aggregation induced by 10 μM ADP, human PRP
Experimental: The ability of P2Y1 antagonists covered in the present invention to inhibit platelet aggregation induced by 10 μM ADP was tested using human platelet rich plasma (PRP) as described in Platelet Protocols: Research and Clinical Laboratory Procedures (White, M. M. et al., Academic Press (1999)). Human blood was collected in 30 μM (final concentration in blood) argatroban (GSK) as the anticoagulant at a ratio of 1 ml per 9 ml of blood. The PRP was isolated by centrifugation at 170 g for 12 minutes. The platelet poor plasma (PPP) was used as the blank for optical aggregometry. Compounds of the present invention in DMSO solution was preincubated with 250 μl PRP at 37° C. for 1 minute with stirring speed of 1000 rpm. Aggregation was initiated by addition of 2.5 μl of 1 mM ADP (Chrono-log, Havertown, Pa.) for a final ADP concentration of 10 μM. Platelet aggregation was monitored using Optical Aggregometer (Chrono-log, Havertown, Pa.) and the area under the curve (AUC) at 5 minute was measured. IC50 was calculated using vehicle control as 0% inhibition.

[3] = SPA, [33P] 2MeS-ADP displacement, read-out: P2Y1 Ki (nM) using binding assay B

SMILES | Ki [1, 3] [nM] | IC50 [2] [µM] | Ki [1] [nM]
CC(C)(C)CN1CCC2(CC1)CN(c1ccccc1NC(=O)Nc1nc3ccc(Cl)nc3s1)c1c(O)ccc(-c3nc4ccc(F)cc4s3)c12 [Example 144, 1-(5-Chlorothiazolo[5,4-b]pyridin-2-yl)-3-(2-(4-(6-fluorobenzo[d]thiazol-2-yl)-7-hydroxy-1′-neopentylspiro[indoline-3,4′-piperidin]-1-yl)phenyl)urea] | 13 | 0.7 | 
CC(C)(C)CN1CCC2(CC1)CN(c1ccccc1NC(=O)Nc1nc3ccc(F)cc3s1)c1c(O)cc(F)c(-c3nc4cc(Cl)ccc4s3)c12 [Example 140, 1-(2-(4-(5-Chlorobenzo[d]thiazol-2-yl)-5-fluoro-7-hydroxy-1′-neopentylspiro[indoline-3,4′-piperidin]-1-yl)phenyl)-3-(6-fluorobenzo[d]thiazol-2-yl)urea] | 52.4 | 0.6 | 
CC(C)(C)CN1CCC2(CC1)CN(c1ccccc1NC(=O)Nc1ccc(OC(F)(F)F)cc1)c1c(O)cc(F)c(-c3ccc(Cl)cc3)c12 [Example 157, 1-(2-(4-(4-Chlorophenyl)-5-fluoro-7-hydroxy-1′-neopentylspiro[indoline-3,4′-piperidin]-1-yl)phenyl)-3-(4-(trifluoromethoxy)phenyl)urea] | 12.3 | 0.2 | 
CC(C)(C)CN1CCC2(CC1)CN(c1ccccc1NC(=O)Nc1csc(Cl)n1)c1c(O)ccc(-c3nc4cc(F)ccc4s3)c12 [Example 112, 1-(2-Chlorothiazol-4-yl)-3-(2-(4-(5-fluorobenzo[d]thiazol-2-yl)-7-hydroxy-1′-neopentylspiro[indoline-3,4′-piperidin]-1-yl)phenyl)urea] | 9.5 | 0.2 | 
COc1ccc2nc(NC(=O)Nc3ccccc3N3CC4(CCN(CC(C)(C)C)CC4)c4c(C(F)(F)F)ccc(O)c43)sc2c1 [Example 108, 1-(2-(7-Hydroxy-1′-neopentyl-4-(trifluoromethyl)spiro [indoline-3,4′-piperidin]-1-yl)phenyl)-3-(6-methoxybenzo [d]thiazol-2-yl)urea] | 14.5 | 0.2 | 
CC(C)CN1CCCC1c1ccc(NC(=O)Nc2ccccc2N2CC3(CCN(CC(C)(C)C)CC3)c3c(F)cc(F)c(O)c32)cc1 (stereo not shown) [Example 99, 1-(2-(4,6-Difluoro-7-hydroxy-1′-neopentylspiro [indoline-3,4′-piperidine]-1-yl)phenyl)-3-(4-(1-isobutylpyrrolidin-2-yl)phenyl)urea] |  | 1.7 | 14.2
Cc1ccc2nc(NC(=O)Nc3ccccc3N3CC4(CCN(CC(C)(C)C)CC4)c4c(Cl)ccc(O)c43)sc2c1 [Example 40, 1-(2-(4-Chloro-7-hydroxy-1′-neopentylspiro[indoline-3,4′-piperidine]-1-yl)phenyl)-3-(6-methylbenzo[d]thiazol-2-yl)urea] | 5.6 | 0.5 | 
CC(C)(C)CN1CCC2(CC1)CN(c1ccccc1NC(=O)NC1CCC(C(C)(C)C)CC1)c1c(O)ccc(C(F)(F)F)c12 (stereo not shown) [Example 27, 1-(4-tert-Butylcyclohexyl)-3-(2-(7-hydroxy-1′-neopentyl-4-(trifluoromethyl)spiro[indoline-3,4′-piperidine]-1-yl)phenyl)urea] | 9.6 | 0.7 | 
CC(C)(C)CN1CCC2(CC1)CN(c1ccccc1NC(=O)Nc1ccc(C(C)(C)C)cc1)c1c2ccc(F)c1O [Example 2, 1-(4-tert-Butylphenyl)-3-(2-(6-fluoro-7-hydroxy-1′-neopentylspiro[indoline-3,4′-piperidine]-1-yl)phenyl)urea] | 9 | 0.6 | 
COc1ccc2nc(NC(=O)Nc3ccccc3N3CC4(CCN(CC(C)(C)C)CC4)c4c(-c5nc6cc(Cl)ccc6s5)ccc(O)c43)sc2c1 [Example 150, 1-(2-(4-(5-Chlorobenzo[d]thiazol-2-yl)-7-hydroxy-1′-neopentylspiro[indoline-3,4′-piperidin]-1-yl)phenyl)-3-(6-methoxybenzo[d]thiazol-2-yl)urea] | 33.4 | 0.9 | 
CCN(CC)S(=O)(=O)c1ccc(O)c2c1C1(CCN(CC(C)(C)C)CC1)CN2c1ccccc1NC(=O)Nc1ccc(OC(F)(F)F)cc1 [Example 91, N,N-Diethyl-7-hydroxy-1′-neopentyl-1-(2-(3-(4-(trifluoromethoxy)phenyl)ureido)phenyl)spiro [indoline-3,4′-piperidine]-4-sulfonamide trifluoroacetic acid salt] | 3.4 | 0.3 | 
CC(C)(C)CN1CCC2(CC1)CN(c1ccccc1NC(=O)Nc1nc3ccc(F)nc3s1)c1c(O)cc(F)c(Cl)c12 [Example 102, 1-(2-(4-Chloro-5-fluoro-7-hydroxy-1′-neopentylspiro [indoline-3,4′-piperidin]-1-yl)phenyl)-3-(5-fluorothiazolo [5,4-b]pyridin-2-yl)urea] | 12.6 | 0.6 | 
CC(C)(C)CN1CCC2(CC1)CN(c1ccccc1NC(=O)Nc1nc3ccc(Cl)cc3s1)c1c(O)ccc(-c3nc4cc(F)ccc4s3)c12 [Example 127, 1-(6-Chlorobenzo[d]thiazol-2-yl)-3-(2-(4-(5-fluorobenzo[d]thiazol-2-yl)-7-hydroxy-1′-neopentylspiro[indoline-3,4′-piperidin]-1-yl)phenyl)urea] |  | 0.5 | 
CC(C)c1nsc(NC(=O)Nc2ccccc2N2CC3(CCN(CC(C)(C)C)CC3)c3c(C#N)ccc(O)c32)n1 [Example 88, l-(2-(4-Cyano-7-hydroxy-1′-neopentylspiro[indoline-3,4′-piperidin]-1-yl)phenyl)-3-(3-isopropyl-1,2,4-thiadiazol-5-yl)urea] |  | 0.9 | 
COc1ccc2nc(NC(=O)Nc3ccccc3N3CC4(CCN(CC(C)(C)C)CC4)c4c(C#N)ccc(O)c43)sc2c1 [Example 86, l-(2-(4-Cyano-7-hydroxy-1′-neopentylspiro[indoline-3,4′-piperidin]-1-yl)phenyl)-3-(6-methoxybenzo[d]thiazol-2-yl)urea] |  | 0.8 | 
COc1ccc2nc(NC(=O)Nc3ccccc3N3CC4(CCN(CC(C)(C)C)CC4)c4c(C#N)ccc(O)c43)sc2n1 [Example 177, 1-(2-(4-Cyano-7-hydroxy-1′-neopentylspiro[indoline-3,4′-piperidine]-1-yl)phenyl)-3-(5-methoxythiazolo[5,4-b]pyridin-2-yl)urea] |  | 0.7 | 
CC(C)(C)CN1CCC2(CC1)CN(c1ccccc1NC(=O)Nc1nc3ccc(Cl)nc3s1)c1c(O)ccc(-c3nc4cc(C(F)(F)F)ccc4s3)c12 [Example 109, 1-(5-Chlorothiazolo[5,4-b]pyridin-2-yl)-3-(2-(7-hydroxy-1′-neopentyl-4-(5-(trifluoromethyl)benzo[d]thiazol-2-yl)spiro[indoline-3,4′-piperidin]-1-yl)phenyl)urea] |  | 0.4 | 
CC(C)N1CCC2(CC1)CN(c1ccccc1NC(=O)Nc1ccc(OC(F)(F)F)cc1)c1c(O)ccc(-c3nc4cc(Cl)ccc4s3)c12 [Example 143, 1-(2-(4-(5-Chlorobenzo[d]thiazol-2-yl)-7-hydroxy-1′-isopropylspiro[indoline-3,4′-piperidine]-1-yl)phenyl)-3-(4(trifluoromethoxy)phenyl)urea] |  | 0.9 | 
CC(C)CN1CCC2(CC1)CN(c1ccccc1NC(=O)Nc1nc3ccc(Cl)nc3s1)c1c(O)ccc(C(F)(F)F)c12 [Example 171, 1-(5-Chlorothiazolo[5,4-b]pyridin-2-yl)-3-(2-(7-hydroxy-1′-isobutyl-4-(trifluoromethyl)spiro[indoline-3,4′-piperidine]-1-yl)phenyl)urea] |  | 0.3 | 
CC(C)(C)CN1CCC2(CC1)CN(c1ccccc1NC(=O)Nc1nc3ccc(F)nc3s1)c1c(O)ccc(C#N)c12 [Example 180, 1-(2-(4-Cyano-7-hydroxy-1′-neopentylspiro[indoline-3,4′-piperidine]-1-yl)phenyl)-3-(5-fluorothiazolo[5,4-b]pyridin-2-yl)urea] |  | 0.9 | 
CC(C)(C)CN1CCC2(CC1)CN(c1ccccc1NC(=O)Nc1ccc(OC(F)(F)F)cc1)c1c(O)cc(F)cc12 [Example 76, 1-(2-(5-Fluoro-7-hydroxy-1′-neopentylspiro[indoline-3,4′-piperidine]-1-yl)phenyl)-3-(4-(trifluoromethoxy)phenyl)urea] |  | 0.7 | 
CC(C)(C)CN1CCC2(CC1)CN(c1ccccc1NC(=O)Nc1ccc(OC(F)(F)F)cc1)c1c(O)ccc(-c3nc4cc(Cl)ccc4s3)c12 [Example 134, 1-(2-(4-(5-Chlorobenzo[d]thiazol-2-yl)-7-hydroxy-1′-neopentylspiro[indoline-3,4′-piperidin]-1-yl)phenyl)-3-(4-(trifluoromethoxy)phenyl)urea] |  | 0.4 | 
CC(C)(C)CN1CCC2(CC1)CN(c1ccccc1NC(=O)Nc1csc(Cl)n1)c1c(O)ccc(-c3nc4cccc(Cl)c4s3)c12 [Example 122, 1-(2-(4-(7-Chlorobenzo[d]thiazol-2-yl)-7-hydroxy-1′-neopentylspiro[indoline-3,4′-piperidin]-1-yl)phenyl)-3-(2-chlorothiazol-4-yl)urea] |  | 0.4 | 
CC(C)(C)CN1CCC2(CC1)CN(c1ccccc1NC(=O)Nc1nc3ccc(Cl)nc3s1)c1c(O)ccc(-c3nc4cc(Cl)ccc4s3)c12 [Example 110, 1-(2-(4-(5-Chlorobenzo[d]thiazol-2-yl)-7-hydroxy-1′-neopentylspiro[indoline-3,4′-piperidin]-1-yl)phenyl)-3-(5-chlorothiazolo[5,4-b]pyridin-2-yl)urea] |  | 0.5 | 
CC(C)CN1CCC2(CC1)CN(c1ccccc1NC(=O)Nc1ccc(OC(F)(F)F)cc1)c1c(O)ccc(-c3nc4cc(Cl)ccc4s3)c12 [Example 142, 1-(2-(4-(5-Chlorobenzo[d]thiazol-2-yl)-7-hydroxy-1′-isobutylspiro[indoline-3,4′-piperidine]-1-yl)phenyl)-3-(4-(trifluoromethoxy)phenyl)urea] |  | 0.5 | 
